# Reference: patent US10512656B2, “Compositions and methods for the treatment of lysosomal storage disorders and disorders characterized by lysosomal dysfunction” (Baylor College of Medicine, priority 2016, dated 2019)
# Key:
# TFEB = assay: Serum re-stimulation of serum-starved Tsc2-/- cells, TFEB localization; type: cell-based, mouse; conditions: preincubation with MK2206
# Procedure: FIG. 15. Serum stimulation modulates subcellular localization of TFEB by regulating Akt activity. (a) WT and Tsc2^−/− cells were serum starved (16 h), treated with MK2206 in the last two hr of starvation where indicated, and stimulated with dialyzed serum for the last 30 min when indicated. Cell lysates were probed with antibodies as indicated. (b) WT and Tsc2^−/− cells were transiently transfected with TFEB-Flag and treated as in (a) and analyzed by immunofluorescence confocal microscopy. Scale bar is 60 μm.
# Cln3^Δex7-8 mice [1] = assay: Life span assessment, oral trehalose; type: in vivo, mouse
# Procedure: Cln3^Δex7-8 mice (stock no. 004685; Cln3^tm1.1Mem/J; CD-1 background)^32 were obtained from the Jackson Laboratory. Control (CD-1) and Cln3^Δex7-8 mice were housed 3-4 per cage in a room with a 12-h light/12-h dark cycle. Food and water were provided ad libitum. All mice used in this study were analyzed at 8 and 12 months of age and were littermates produced by crossing heterozygous Cln3^Δex7-8 mice. Only males were used for this analysis. Investigators were blinded when analyzing the data, and no randomization was necessary. No data were excluded from this study.
# Trehalose (Swanson) was dissolved in drinking water to a final concentration of 2% and changed twice a week. Trehalose-containing water was given to Cln3^Δex7-8 and WT mice by spontaneous oral administration starting at 21 days of age and continuing until the day the mice died naturally (life span assessment) or were sacrificed for other studies.
# mTORC1 = molecular target: T1, mTORC1 (Mus musculus, UniProt Q9JLN9); assay: Immunoblot of mTORC1 substrates in WT and Tsc2-/- MEFs; type: cell-based; conditions: Tsc2-/- and control MEFs, trehalose 100 mM 24 h
# T1 construct: 100 mM) for 24 h or left untreated; endogenous in cells; host or cells: wild-type and Tsc2-/- mouse embryonic fibroblasts
# Procedure: (b) Quantification of TFEB subcellular localization (C, cytoplasmic; N, nuclear) after 24 h of trehalose treatment (Tre) or in untreated cells (UT). Scale bars in a, b is 40 μm. (c) Immunoblot analyses show expression levels of substrates downstream of mTORC1. Wild-type (WT) and TSC2 null MEF cells were treated with trehalose (Tre; 100 mM) for 24 h or left untreated. As controls, cells were treated with Torin 1 (300 nM) or rapamycin (300 nM) for 2 h before extracting the lysates. Phospho- and total S6K1 (P-S6K1 and T-S6K1), phospho- and total S6 (P-S6 and T-S6) and phospho- and total 4E-BP1 (P-4E-BP1 and T-4E-BP1) were detected as readouts of mTORC1 activity. […]
# Brain tissue and cultured cells were collected and lysed in RIPA buffer (50 mM Tris-HCl, ph 7.4, 1% NP40, 0.5% Na-deoxycholate, 0.1% SDS, 150 mM NaCl, 2 mM EDTA and 50 mM NaF) including a cocktail of protease (Roche) and phosphatase (SIGMA) inhibitors. Protein concentrations were measured with the bicinchoninic acid protein assay kit (Pierce, Rockford, Ill.), using bovine serum albumin as standard. […] Western blot images were acquired by LAS 4000 (GE Healthcare) and quantified using ImageJ. […]
# Cln3^Δex7-8 mice [2] = assay: Corpus callosum volume by MRI; type: in vivo, mouse; conditions: 12-month-old Cln3^Δex7-8 mice, trehalose; untreated 12.96±0.43 mm^3
# Procedure: Mice were transcardially perfused before imaging. The head was removed and then the skin, muscle, ears, nose tip and lower jaw were removed to expose the skull. The head was fixed overnight in 4% paraformaldehyde at 4° C. The head was then transferred to 40 mLs of 0.01% sodium azide in PBS and rocked for 7 days at 4° C. The head was transferred to a solution of 5 mM gadopentetate dimeglumine (Bayer HealthCare Pharmaceuticals Inc., Wayne, N.J.) and 0.01% sodium azide in PBS and rocked for 25-35 days at 4° C. Incubation with gadopentetate dimeglumine improved the signal-to-noise ratio. Before imaging, the head was equilibrated to room temperature for 6-8 h.
# A total of 48 scans per mouse were acquired on a 9.4 T Bruker Avance Biospec Spectrometer, 21-cm bore horizontal scanner with 35 mm volume resonator (Bruker BioSpin, Billerica, Mass.) with Paravision 5.0 software (Bruker Biospin, Billerica, Mass.). The three-dimensional DTI scan parameters are as follows: spin echo, b-value=0 and 1,000 s/mm^2, 20 diffusion directions with one non-diffusion weighted image, TR=500 ms, TE=14.8 ms, FOV=1.7×1.2×2.4 cm or 2.0×1.4×3.2 cm, matrix=128×96×96, NEX=1, δ=3 ms, Δ=7 ms. The acquisition time was ˜15 h.
# The MRI images were first processed on DTI studio to extrapolate the fractional anisotropy. […]
# ERK = ERK inhibition check; type: cell-based
# Procedure: Brain tissue and cultured cells were collected and lysed in RIPA buffer (50 mM Tris-HCl, ph 7.4, 1% NP40, 0.5% Na-deoxycholate, 0.1% SDS, 150 mM NaCl, 2 mM EDTA and 50 mM NaF) including a cocktail of protease (Roche) and phosphatase (SIGMA) inhibitors. Protein concentrations were measured with the bicinchoninic acid protein assay kit (Pierce, Rockford, Ill.), using bovine serum albumin as standard. Lysates were separated via SDS-polyacrylamide gel electrophoresis (PAGE) and then transferred to nitrocellulose membranes. Blots were incubated in blocking buffer (5%, w/v, dried skimmed milk in Tris-buffered saline, pH 7.4 and 0.2% Tween 20, TBST) followed by overnight incubation with appropriate antibodies diluted in blocking buffer (5% dry milk). Western blot images were acquired by LAS 4000 (GE Healthcare) and quantified using ImageJ. Images have been cropped for presentation.
Compound,TFEB nucleus-to-cytosol translocation on serum re-stimulation (TFEB),"median survival (Cln3^Δex7-8 mice [1]; Cln3^Δex7-8 mice, 2% trehalose in drinking water from 21 days of age, untreated 454 days)","maximum life span (Cln3^Δex7-8 mice [1]; Cln3^Δex7-8 mice, oral trehalose, untreated 544 days)",increase of maximum life span (Cln3^Δex7-8 mice [1]; treated vs untreated Cln3^Δex7-8 mice),"increase of median survival (Cln3^Δex7-8 mice [1]; treated vs untreated Cln3^Δex7-8 mice, log-rank P=0.00566)",mTORC1 signalling (mTORC1),corpus callosum volume (Cln3^Δex7-8 mice [2]),ERK inhibition (ERK)
"Cl.NC1(c2ccc(-c3nc4ccn5c(=O)[nH]nc5c4cc3-c3ccccc3)cc2)CCC1 [MK2206, 8-[4-(1-aminocyclobutyl)phenyl]-9-phenyl-1,2,4-triazolo[3,4-f][1,6]naphthyridin-3(2H)-one]",prevented,–,–,–,–,–,–,–
"OC[C@H]1O[C@H](O[C@H]2O[C@H](CO)[C@@H](O)[C@H](O)[C@H]2O)[C@H](O)[C@@H](O)[C@@H]1O [trehalose, a-D-glucopyranosyl a-D-glucopyranoside]",–,522 days,699 days,28%,15%,does not alter mTORC1 signalling,15.02±0.33 mm^3,does not inhibit ERK
